Measured values from patent US10105365B2, “Solid antiviral dosage forms” (AbbVie Inc., priority 2014, dated 2018).

Key:
[1] = Human pharmacokinetic study, Example 5 Arm II (multiple dose, crossover); type: in vivo; settings: Example 5 Arm II; for β, geometric mean / half-life / AUC / concentration at 24 h / Cmax / Tmax: multiple dose 14 days, non-fasting, N = 63; for half-life / AUC / concentration at 24 h / Cmax / Tmax: both sexes, human, blood, oral; for AUC: read-out: AUC24, geometric mean; for concentration at 24 h: read-out: C24, geometric mean; for Cmax: read-out: Cmax, geometric mean; for Tmax: read-out: Tmax, first value (geometric mean)
Method in brief: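 Multiple-dose two-period randomized crossover in 66 healthy adults: oral dosing for 14 days per period, ≥10-day separation, taken with ~240 mL water about 30 min after a standardized breakfast. Serial blood samples for pharmacokinetics were collected 72 hours after dosing in each period.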

[2] = Sink Conditions dissolution testing of Formulation C5-12; type: physicochemical; settings: N = 6
Experimental: The release profiles of Formulation C5-12 of Example 1 were evaluated in a Sink Conditions dissolution study. The study was conducted in 900 mL of dissolution medium using a standard USP dissolution Apparatus 2 (paddle) operating at 100 RPM at 37±0.5° C. The dissolution medium was a 0.05 M sodium phosphate buffer pH 6.8 with 15 mM cTAB as a surfactant.

[3] = Human pharmacokinetic study, Example 5 Arm I (single dose, replicated crossover); type: in vivo; settings: both sexes, human, oral, single dose, non-fasting; for half-life / AUC(0-t) / AUC(0-inf) / Tmax: blood; for Cmax: in vivo
Method in brief: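 Single-dose, randomized, four-period, two-sequence replicated crossover in 88 healthy adults, periods separated by at least 10 days. Oral dosing in the morning with about 240 mL water, about 30 min after starting a standardized breakfast. Serial blood samples collected over 72 h after each dose.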

[4] = Human pharmacokinetic study, Example 4 Arm II (single dose, crossover); type: in vivo; settings: both sexes, human, oral, Example 4 Arm II, single dose, non-fasting, N = 13; for half-life / AUC(0-t) / AUC(0-inf) / Tmax: blood; for AUC(0-t): read-out: AUCt, geometric mean; for AUC(0-inf): read-out: AUC∞, geometric mean; for Tmax: read-out: Tmax; for concentration at 24 h / Cmax: in vivo; for concentration at 24 h: read-out: C24, geometric mean; for Cmax: read-out: Cmax, geometric mean
Method in brief: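 Healthy adult men and women (N=30 across Arms I and II) randomised to crossover regimen sequences; single oral dose with ~240 mL water ~30 min after a standardised breakfast; one regimen given an evening dose after a snack.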

[5] = Solubility (general statement); type: physicochemical
[6] = Permeability (general statement); type: in vitro ADME; settings: free acid of Compound 4; gastrointestinal tract
[7] = Human pharmacokinetic study, Example 4 Arm III (14-day multiple dose, steady state); type: in vivo
[8] = Regimen B (reference regimen): two Triple Tablets + one Single Tablet morning, one Single Tablet evening
[9] = 3 film-coated Formulation C5-12 tablets daily, Regimen A (C5-12): three film-coated Formulation C5-12 tablets daily
[10] = 4 hours, pH 6.8 buffer, 15 mM cTAB
[11] = 6 hours, pH 6.8 buffer, 15 mM cTAB
[12] = 8 hours, pH 6.8 buffer, 15 mM cTAB
[13] = 12 hours, pH 6.8 buffer, 15 mM cTAB
[14] = 16 hours, pH 6.8 buffer, 15 mM cTAB
[15] = 24 hours, pH 6.8 buffer, 15 mM cTAB
[16] = 30 hours, pH 6.8 buffer, 15 mM cTAB
[17] = 3 Formulation C5-12 tablets, Regimen E (C5-12): three Formulation C5-12 tablets in the morning
[18] = Regimen A (reference regimen): two Triple Tablets + one Single Tablet morning, one Single Tablet evening
[19] = Formulation C5-12, Day 14 versus Day 1
[20] = human, in vivo, oral, 3 Formulation C5-12 tablets daily, three Formulation C5-12 tablets daily for 14 days, non-fasting, Day 14, N = 14
[21] = three Formulation C5-12 tablets daily for 14 days, non-fasting, Day 14, N = 14

COc1c(-c2ccc3cc(NS(C)(=O)=O)ccc3c2)cc(-n2ccc(=O)[nH]c2=O)cc1C(C)(C)C [Compound 4, N-(6-(3-tert-butyl-5-(2,4-dioxo-3,4-dihydropyrimidin-1(2H)-yl)-2-methoxyphenyl)naphthalen-2-yl)methanesulfonamide]
β, geometric mean ([1]; Regimen A (C5-12): three film-coated Formulation C5-12 tablets daily): 0.104 h⁻¹
β, geometric mean [1, 8]: 0.122 h⁻¹
Exposures (Cmax,ss and AUC24,ss) versus the reference regimen ([1]; Formulation C5-12, point estimate and 90% confidence interval for the GMR within 0.80-1.25): bioequivalent
C24,ss lower than C24,ss (Ctrough) for the reference regimen ([1]; Formulation C5-12 relative to the reference regimen): 29%
half-life [1, 9]: 6.2 h
AUC [1, 9]: 8810 ng·h/mL
concentration at 24 h [1, 9]: 116 ng/mL
Cmax [1, 9]: 799 ng/mL
Tmax [1, 9]: 8 h
half-life [1, 8]: 5.5 h
AUC [1, 8]: 9770 ng·h/mL
concentration at 24 h [1, 8]: 162 ng/mL
Cmax [1, 8]: 879 ng/mL
Tmax [1, 8]: 4 h
% Released ([2]; 1 hour, 900 mL 0.05 M sodium phosphate buffer pH 6.8, 15 mM cTAB, USP Apparatus 2, 100 RPM, 37 °C): 1%
mg Released ([2]; 1 hour, pH 6.8 buffer, 15 mM cTAB): 2.3 mg
% Released [2, 10]: 11%
mg Released [2, 10]: 25.7 mg
% Released [2, 11]: 18%
mg Released [2, 11]: 42.0 mg
% Released [2, 12]: 25%
mg Released [2, 12]: 58.3 mg
% Released [2, 13]: 39%
mg Released [2, 13]: 91.0 mg
% Released [2, 14]: 51%
mg Released [2, 14]: 119.0 mg
% Released [2, 15]: 70%
mg Released [2, 15]: 163.3 mg
% Released [2, 16]: 81%
mg Released [2, 16]: 189.0 mg
half-life ([3]; 3 film-coated Formulation C5-12 tablets, Regimen A (C5-12): three film-coated Formulation C5-12 tablets, N = 172): 6.91 h
AUC(0-t) ([3]; 3 film-coated Formulation C5-12 tablets, Regimen A (C5-12): three film-coated Formulation C5-12 tablets, N = 172, read-out: AUCt, geometric mean): 12700 ng·h/mL
AUC(0-inf) ([3]; 3 film-coated Formulation C5-12 tablets, Regimen A (C5-12): three film-coated Formulation C5-12 tablets, N = 172, read-out: AUC∞, geometric mean): 12900 ng·h/mL
Tmax ([3]; 3 film-coated Formulation C5-12 tablets, Regimen A (C5-12): three film-coated Formulation C5-12 tablets, N = 172, read-out: Tmax, first value (geometric mean)): 8 h
half-life ([3]; Regimen B (reference regimen): two Triple Tablets + one Single Tablet morning, one Single Tablet evening, N = 171): 5.8 h
AUC(0-t) ([3]; Regimen B (reference regimen): two Triple Tablets + one Single Tablet morning, one Single Tablet evening, N = 171, read-out: AUCt, geometric mean): 14800 ng·h/mL
AUC(0-inf) ([3]; Regimen B (reference regimen): two Triple Tablets + one Single Tablet morning, one Single Tablet evening, N = 171, read-out: AUC∞, geometric mean): 14900 ng·h/mL
Tmax ([3]; Regimen B (reference regimen): two Triple Tablets + one Single Tablet morning, one Single Tablet evening, N = 171, read-out: Tmax, first value (geometric mean)): 4 h
Cmax ([3]; 3 film-coated Formulation C5-12 tablets, Regimen A (C5-12): three film-coated Formulation C5-12 tablets, N = 172, read-out: Cmax, geometric mean): 1060 ng/mL
Cmax ([3]; Regimen B (reference regimen): two Triple Tablets + one Single Tablet morning, one Single Tablet evening, N = 171, read-out: Cmax, geometric mean): 1030 ng/mL
half-life [4, 17]: 6.4 h
AUC(0-t) [4, 17]: 18400 ng·h/mL
AUC(0-inf) [4, 17]: 18600 ng·h/mL
Tmax [4, 17]: 9.7 h
half-life [4, 18]: 5.5 h
AUC(0-t) [4, 18]: 18200 ng·h/mL
AUC(0-inf) [4, 18]: 18400 ng·h/mL
Tmax [4, 18]: 3.1 h
concentration at 24 h [4, 17]: 290 ng/mL
Cmax [4, 17]: 1350 ng/mL
concentration at 24 h [4, 18]: 361 ng/mL
Cmax [4, 18]: 1240 ng/mL
Solubility ([5]; aqueous): low solubility
Solubility in the gastrointestinal tract ([5]; free acid of Compound 4): poor solubility
Permeability [6]: good permeability
AUC24, RATIO [7, 19]: 0.88
C24, RATIO [7, 19]: 0.63
Cmax, RATIO [7, 19]: 0.95
Tmax ([7]; human, in vivo, oral, 3 Formulation C5-12 tablets daily, three Formulation C5-12 tablets daily for 14 days, non-fasting, Day 1, N = 14): 9 h
AUC ([7]; human, in vivo, oral, 3 Formulation C5-12 tablets daily, three Formulation C5-12 tablets daily for 14 days, non-fasting, Day 1, N = 14, read-out: AUC24, geometric mean): 13600 ng·h/mL
concentration at 24 h ([7]; human, in vivo, oral, 3 Formulation C5-12 tablets daily, three Formulation C5-12 tablets daily for 14 days, non-fasting, Day 1, N = 14, read-out: C24, geometric mean): 272 ng/mL
Cmax ([7]; human, in vivo, oral, 3 Formulation C5-12 tablets daily, three Formulation C5-12 tablets daily for 14 days, non-fasting, Day 1, N = 14, read-out: Cmax, geometric mean): 1320 ng/mL
Tmax [7, 20]: 9.4 h
half-life [7, 20]: 5.9 h
AUC ([7]; human, in vivo, oral, 3 Formulation C5-12 tablets daily, three Formulation C5-12 tablets daily for 14 days, non-fasting, Day 14, N = 14, read-out: AUC24, geometric mean): 12000 ng·h/mL
concentration at 24 h ([7]; human, in vivo, oral, 3 Formulation C5-12 tablets daily, three Formulation C5-12 tablets daily for 14 days, non-fasting, Day 14, N = 14, read-out: C24, geometric mean): 172 ng/mL
Cmax ([7]; human, in vivo, oral, 3 Formulation C5-12 tablets daily, three Formulation C5-12 tablets daily for 14 days, non-fasting, Day 14, N = 14, read-out: Cmax, geometric mean): 1250 ng/mL
C24, arithmetic mean, % CV [7, 21]: (210,61) ng/mL
β [7, 21]: 0.117 h⁻¹
